Laboratory results reported in PubChem BioAssay AID1963851 (Molecular Pharmacology Branch, DTP, NCI, 2024).
pIC50: −log10 of the molar value.

Tested on: 188146-221-R-J1-PDC complex spheroid viability
Assay: Anticancer human tumor 188146-221-R-J1-PDC patient-derived colon adenocarcinoma cell line growth inhibition [POLQ]
Conditions: for pIC50: curve of first compound; for viability, T/C: stronger effect = lower value
Outline: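 Three-cell-type spheroids modelling solid tumor plus stroma served as the readout system; POL inhibitors were tested individually and in combination, concentration ranges set by clinical Cmax where known.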

[1] = second compound 0.0316 µM, first compound 0.0316 µM
[2] = second compound 0.0316 µM, first compound 0.1 µM
[3] = second compound 0.0316 µM, first compound 0.316 µM
[4] = second compound 0.0316 µM, first compound 1 µM
[5] = second compound 0.1 µM, first compound 0.0316 µM
[6] = second compound 0.1 µM, first compound 0.1 µM
[7] = second compound 0.1 µM, first compound 0.316 µM
[8] = second compound 0.1 µM, first compound 1 µM
[9] = second compound 0.316 µM, first compound 0.0316 µM
[10] = second compound 0.316 µM, first compound 0.1 µM
[11] = second compound 0.316 µM, first compound 0.316 µM
[12] = second compound 0.316 µM, first compound 1 µM
[13] = second compound 1 µM, first compound 0.0316 µM
[14] = second compound 1 µM, first compound 0.1 µM
[15] = second compound 1 µM, first compound 0.316 µM
[16] = second compound 1 µM, first compound 1 µM
[17] = second compound 3.16 µM, first compound 0.0316 µM
[18] = second compound 3.16 µM, first compound 0.1 µM
[19] = second compound 3.16 µM, first compound 0.316 µM
[20] = second compound 3.16 µM, first compound 1 µM
[21] = second compound 10 µM, first compound 0.0316 µM
[22] = second compound 10 µM, first compound 0.1 µM
[23] = second compound 10 µM, first compound 0.316 µM
[24] = second compound 10 µM, first compound 1 µM
[25] = second compound 0.0316 µM, first compound 3.16 µM
[26] = second compound 0.0316 µM, first compound 10 µM
[27] = second compound 0.1 µM, first compound 3.16 µM
[28] = second compound 0.1 µM, first compound 10 µM
[29] = second compound 0.316 µM, first compound 3.16 µM
[30] = second compound 0.316 µM, first compound 10 µM
[31] = second compound 1 µM, first compound 3.16 µM
[32] = second compound 1 µM, first compound 10 µM
[33] = second compound 3.16 µM, first compound 3.16 µM
[34] = second compound 3.16 µM, first compound 10 µM
[35] = second compound 10 µM, first compound 3.16 µM
[36] = second compound 10 µM, first compound 10 µM
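Also: spheroids exposed to compounds for seven days.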
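For viability, T/C in this document: 100% = DMSO vehicle control viability.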

C=CCn1c(=O)c2cnc(Nc3ccc(N4CCN(C)CC4)cc3)nc2n1-c1cccc(C(C)(C)O)n1 + Cc1cccc(N(C)C(=O)C2C(O)CCN2c2nc(C)cc(C(F)(F)F)c2C#N)c1
pIC50 (second compound 0.0316 µM): < 6.00
pIC50 (second compound 0.1 µM): < 6.00
pIC50 (second compound 0.316 µM): < 6.00
pIC50 (second compound 1 µM): < 6.00
pIC50 (second compound 3.16 µM): < 6.00
pIC50 (second compound 10 µM): 6.12
viability, T/C (second compound 0.0316 µM, first compound 0.00316 µM): 109%
viability, T/C (second compound 0.0316 µM, first compound 0.01 µM): 113%
viability, T/C [1]: 104%
viability, T/C [2]: 105%
viability, T/C [3]: 103%
viability, T/C [4]: 60.9%
viability, T/C (second compound 0.1 µM, first compound 0.00316 µM): 112%
viability, T/C (second compound 0.1 µM, first compound 0.01 µM): 109%
viability, T/C [5]: 119%
viability, T/C [6]: 114%
viability, T/C [7]: 115%
viability, T/C [8]: 51.5%
viability, T/C (second compound 0.316 µM, first compound 0.00316 µM): 92.3%
viability, T/C (second compound 0.316 µM, first compound 0.01 µM): 88.7%
viability, T/C [9]: 105%
viability, T/C [10]: 107%
viability, T/C [11]: 110%
viability, T/C [12]: 59.5%
viability, T/C (second compound 1 µM, first compound 0.00316 µM): 109%
viability, T/C (second compound 1 µM, first compound 0.01 µM): 98.5%
viability, T/C [13]: 105%
viability, T/C [14]: 99%
viability, T/C [15]: 112%
viability, T/C [16]: 57.8%
viability, T/C (second compound 3.16 µM, first compound 0.00316 µM): 90.6%
viability, T/C (second compound 3.16 µM, first compound 0.01 µM): 101%
viability, T/C [17]: 114%
viability, T/C [18]: 102%
viability, T/C [19]: 89.7%
viability, T/C [20]: 56.9%
viability, T/C (second compound 10 µM, first compound 0.00316 µM): 90.7%
viability, T/C (second compound 10 µM, first compound 0.01 µM): 92.2%
viability, T/C [21]: 104%
viability, T/C [22]: 90.4%
viability, T/C [23]: 97%
viability, T/C [24]: 35.4%

O=C(Nc1ccc(O)c(NS(=O)(=O)c2ccc(F)cc2)c1)c1ccc(-c2ccccc2)cc1 + COC1C(OC(N)=O)C(O)C(Oc2ccc3c(O)c(NC(=O)c4ccc(O)c(CC=C(C)C)c4)c(=O)oc3c2C)OC1(C)C
pIC50 (second compound 0.0316 µM): < 5.00
pIC50 (second compound 0.1 µM): < 5.00
pIC50 (second compound 0.316 µM): < 5.00
pIC50 (second compound 1 µM): < 5.00
pIC50 (second compound 3.16 µM): < 5.00
pIC50 (second compound 10 µM): < 5.00
viability, T/C [1]: 104%
viability, T/C [2]: 95%
viability, T/C [3]: 99.7%
viability, T/C [4]: 97.6%
viability, T/C [25]: 86.5%
viability, T/C [26]: 89%
viability, T/C [5]: 106%
viability, T/C [6]: 104%
viability, T/C [7]: 96.5%
viability, T/C [8]: 99.4%
viability, T/C [27]: 98.8%
viability, T/C [28]: 75.2%
viability, T/C [9]: 95%
viability, T/C [10]: 108%
viability, T/C [11]: 101%
viability, T/C [12]: 100%
viability, T/C [29]: 88.2%
viability, T/C [30]: 69.4%
viability, T/C [13]: 102%
viability, T/C [14]: 96.2%
viability, T/C [15]: 105%
viability, T/C [16]: 101%
viability, T/C [31]: 94.4%
viability, T/C [32]: 79.5%
viability, T/C [17]: 105%
viability, T/C [18]: 106%
viability, T/C [19]: 108%
viability, T/C [20]: 88.7%
viability, T/C [33]: 97.4%
viability, T/C [34]: 73.1%
viability, T/C [21]: 96.9%
viability, T/C [22]: 95.8%
viability, T/C [23]: 113%
viability, T/C [24]: 102%
viability, T/C [35]: 103%
viability, T/C [36]: 83.3%

O=c1[nH]cc(F)c(=O)[nH]1 + Nc1ccc(C#CCN(C(=O)Cc2ncc(C(F)(F)F)cc2C(F)(F)F)c2ccc(F)cc2)nn1
pIC50 (second compound 0.0316 µM): 5.53
pIC50 (second compound 0.1 µM): 5.56
pIC50 (second compound 0.316 µM): 5.67
pIC50 (second compound 1 µM): 5.44
pIC50 (second compound 3.16 µM): 5.79
pIC50 (second compound 10 µM): 5.70
viability, T/C [1]: 116%
viability, T/C [2]: 111%
viability, T/C [3]: 83.8%
viability, T/C [4]: 54.1%
viability, T/C [25]: 46.6%
viability, T/C [26]: 52.4%
viability, T/C [5]: 121%
viability, T/C [6]: 105%
viability, T/C [7]: 72.6%
viability, T/C [8]: 58%
viability, T/C [27]: 50.3%
viability, T/C [28]: 45.5%
viability, T/C [9]: 113%
viability, T/C [10]: 103%
viability, T/C [11]: 79.2%
viability, T/C [12]: 55.2%
viability, T/C [29]: 48.9%
viability, T/C [30]: 43.2%
viability, T/C [13]: 100%
viability, T/C [14]: 82.4%
viability, T/C [15]: 74.5%
viability, T/C [16]: 58.6%
viability, T/C [31]: 50.1%
viability, T/C [32]: 44.9%
viability, T/C [17]: 102%
viability, T/C [18]: 91.7%
viability, T/C [19]: 74%
viability, T/C [20]: 49.9%
viability, T/C [33]: 46.6%
viability, T/C [34]: 47.5%
viability, T/C [21]: 123%
viability, T/C [22]: 112%
viability, T/C [23]: 85.7%
viability, T/C [24]: 54.6%
viability, T/C [35]: 47.1%
viability, T/C [36]: 43.7%

COc1cccc2c1C(=O)c1c(O)c3c(c(O)c1C2=O)CC(O)(C(=O)CO)CC3OC1CC(N)C(O)C(C)O1 (stereo not drawn) + Nc1ccc(C#CCN(C(=O)Cc2ncc(C(F)(F)F)cc2C(F)(F)F)c2ccc(F)cc2)nn1
pIC50 (second compound 0.0316 µM): 6.87
pIC50 (second compound 0.1 µM): 6.99
pIC50 (second compound 0.316 µM): 7.16
pIC50 (second compound 1 µM): 7.09
pIC50 (second compound 3.16 µM): 7.24
pIC50 (second compound 10 µM): 7.21
viability, T/C [1]: 67.5%
viability, T/C [2]: 57.8%
viability, T/C [3]: 26.7%
viability, T/C [4]: 5.37%
viability, T/C [25]: 0.23%
viability, T/C [26]: 0.7%
viability, T/C [5]: 80.5%
viability, T/C [6]: 48.3%
viability, T/C [7]: 29.4%
viability, T/C [8]: 5.02%
viability, T/C [27]: 0.21%
viability, T/C [28]: 0.47%
viability, T/C [9]: 67.8%
viability, T/C [10]: 40%
viability, T/C [11]: 25%
viability, T/C [12]: 9.55%
viability, T/C [29]: 0.15%
viability, T/C [30]: 0.48%
viability, T/C [13]: 83.7%
viability, T/C [14]: 36.7%
viability, T/C [15]: 29.5%
viability, T/C [16]: 5.88%
viability, T/C [31]: 0.44%
viability, T/C [32]: 0.58%
viability, T/C [17]: 64.5%
viability, T/C [18]: 34.2%
viability, T/C [19]: 24.8%
viability, T/C [20]: 7.19%
viability, T/C [33]: 0.42%
viability, T/C [34]: 0.9%
viability, T/C [21]: 63.2%
viability, T/C [22]: 38.7%
viability, T/C [23]: 25.3%
viability, T/C [24]: 5.04%
viability, T/C [35]: 0.39%
viability, T/C [36]: 1.33%
